Structures are written as SMILES. pIC50: −log10 of the molar value.

The subject of the test is Onchocerca gutturosa adult male worms. Description: Onchocerciasis in vitro screening model Onchocerca gutturosa (worm motility score and MTT/formazan colorimetry). As to conditions: Onchocerca gutturosa, read-out: O. gutt Act class.
Consider `Cc1ccc(-c2csc(Nc3cc(C)ccn3)n2)nc1` [Example 1, N-(4-Methylpyridin-2-yl)-4-(5-methylpyridin-2-yl)thiazol-2-amine], for which the pIC50 is over 6.70.
In the case of `Cc1ccnc(Nc2nc(-c3cccc(C)n3)cs2)c1` [Example 2] it was 6.30 to 6.70; in that of `COc1cccnc1-c1csc(Nc2cc(C)ccn2)n1` [Example 7], 5.30 to 6.30; in that of `CCOc1cccc(-c2csc(Nc3ncccc3C)n2)n1` [Example 71], 5.30 to 6.30.
As for `CCOc1cccnc1-c1csc(Nc2cc(C)ccn2)n1` [Example 72, 4-(3-ethoxypyridin-2-yl)-N-(4-methylpyridin-2-yl)thiazol-2-amine], the pIC50 is over 6.70.
As for `CC(=O)N(C)c1cc(C(F)(F)F)cnc1Nc1nc(-c2cc(OC3COC3)ccn2)cs1` [Example 73, N-methyl-N-(2-(4-(4-(oxetan-3-yloxy)pyridin-2-yl)thiazol-2-ylamino)-5-(trifluoromethyl)pyridin-3-yl)acetamide], the pIC50 was 6.30 to 6.70.
With `CCOc1cnc(-c2csc(Nc3cc(C)ccn3)n2)c(C)c1` [Example 74, 4-(5-ethoxy-3-methylpyridin-2-yl)-N-(4-methylpyridin-2-yl)thiazol-2-amine], the pIC50 is over 6.70.
For the compound `CCOc1cnc(-c2csc(Nc3ncccc3C)n2)c(C)c1` [Example 75, 4-(5-ethoxy-3-methylpyridin-2-yl)-N-(3-methylpyridin-2-yl)thiazol-2-amine], the pIC50 is over 6.70.
As for `CC(=O)N(C)c1cc(C(F)(F)F)cnc1Nc1nc(-c2cc3c(cn2)N(C)CC3)cs1` [Example 76, N-methyl-N-(2-(4-(1-methyl-2,3-dihydro-1H-pyrrolo[2,3-c]pyridin-5-yl)thiazol-2-ylamino)-5-(trifluoromethyl)pyridin-3-yl)acetamide], the pIC50 was over 6.70.
As for `CCOc1cccnc1-c1csc(Nc2ncccc2C)n1` [Example 77, 4-(3-ethoxypyridin-2-yl)-N-(3-methylpyridin-2-yl)thiazol-2-amine], the pIC50 was over 6.70.
Turning to `CCOc1cccc(-c2csc(Nc3cc(C)ccn3)n2)n1` [Example 78, 4-(6-ethoxypyridin-2-yl)-N-(4-methylpyridin-2-yl)thiazol-2-amine], the pIC50 is 5.30 to 6.30.
With `CCOc1ccc(-c2csc(Nc3ncc(F)cc3C)n2)nc1` [Example 79, 4-(5-ethoxypyridin-2-yl)-N-(5-fluoro-3-methylpyridin-2-yl)thiazol-2-amine], the pIC50 is over 6.70.
For `CSc1ccc(-c2csc(Nc3ncccc3C)n2)nc1` [Example 80, N-(3-methylpyridin-2-yl)-4-(5-(methylthio)pyridin-2-yl)thiazol-2-amine], the pIC50 is over 6.70.
In the case of `CCOc1ccc(-c2csc(Nc3ccc(C)cn3)n2)nc1` [Example 81, 4-(5-ethoxypyridin-2-yl)-N-(5-methylpyridin-2-yl)thiazol-2-amine] it was over 6.70; in that of `CC(=O)N(C)c1cc(C(F)(F)F)cnc1Nc1nc(-c2cc(OC(C)C)ccn2)cs1` [Example 82, N-(2-(4-(4-isopropoxypyridin-2-yl)thiazol-2-ylamino)-5-(trifluoromethyl)pyridin-3-yl)-N-methylacetamide], over 6.70.
In the case of `CCOc1ccc(-c2csc(Nc3ncccc3C3CC3)n2)nc1` [Example 83, N-(3-cyclopropylpyridin-2-yl)-4-(5-ethoxypyridin-2-yl)thiazol-2-amine], the pIC50 is 6.30 to 6.70.
Regarding `CCOc1ccc(-c2csc(Nc3ncc(C(F)(F)F)cc3C)n2)nc1` [Example 84, 4-(5-ethoxypyridin-2-yl)-N-(3-methyl-5-(trifluoromethyl)pyridin-2-yl)thiazol-2-amine], the pIC50 was 6.30 to 6.70.
As to `CCOc1ccc(-c2csc(Nc3ccc(Cl)cn3)n2)nc1` [Example 85, N-(5-chloropyridin-2-yl)-4-(5-ethoxypyridin-2-yl)thiazol-2-amine], the pIC50 was 6.30 to 6.70.
As for `CCOc1ccc(-c2csc(Nc3nc(C)ccc3C)n2)nc1` [Example 86, N-(3,6-dimethylpyridin-2-yl)-4-(5-ethoxypyridin-2-yl)thiazol-2-amine], the pIC50 is over 6.70.
In the case of `CCOc1ccc(Nc2nc(-c3ccc(OCC)cn3)cs2)nc1` [Example 87, N,4-bis(5-ethoxypyridin-2-yl)thiazol-2-amine], the pIC50 was over 6.70.
As to `CCOc1ccc(-c2csc(Nc3ncc(C)cc3C)n2)nc1` [Example 88, N-(3,5-dimethylpyridin-2-yl)-4-(5-ethoxypyridin-2-yl)thiazol-2-amine], the pIC50 was over 6.70.
Consider `Cc1ccnc(Nc2nc(-c3ccc(Cl)cn3)cs2)c1` [Example 89, 4-(5-chloropyridin-2-yl)-N-(4-methylpyridin-2-yl)thiazol-2-amine], for which the pIC50 was 6.30 to 6.70.
`CCOc1ccc(-c2csc(Nc3cccc(C)n3)n2)nc1` [Example 90, 4-(5-ethoxypyridin-2-yl)-N-(6-methylpyridin-2-yl)thiazol-2-amine]: the pIC50 was over 6.70.
Regarding `CCOc1ccc(-c2csc(Nc3cc(C)ccn3)n2)nc1` [Example 91, 4-(5-ethoxypyridin-2-yl)-N-(4-methylpyridin-2-yl)thiazol-2-amine], the pIC50 is over 6.70.
Regarding `Cc1ccnc(Nc2nc(-c3ncccc3C#N)cs2)c1` [Example 92, 2-(2-(4-methylpyridin-2-ylamino)thiazol-4-yl)nicotinonitrile], the pIC50 was over 6.70.
Consider `CC(=O)N(C)c1cc(C(F)(F)F)cnc1Nc1nc(-c2ccc(OC(C)C)cn2)cs1` [Example 93, N-(2-(4-(5-isopropoxypyridin-2-yl)thiazol-2-ylamino)-5-(trifluoromethyl)pyridin-3-yl)-N-methylacetamide], for which the pIC50 was over 6.70.
In the case of `Cc1cccnc1Nc1nc(-c2ccc(Cl)cn2)cs1` [Example 94, 4-(5-chloropyridin-2-yl)-N-(3-methylpyridin-2-yl)thiazol-2-amine] it was over 6.70.
Regarding `CCOc1ccc(-c2csc(Nc3ccc(C(F)(F)F)cn3)n2)nc1` [Example 95, 4-(5-ethoxypyridin-2-yl)-N-(5-(trifluoromethyl)pyridin-2-yl)thiazol-2-amine], the pIC50 was over 6.70.
In the case of `COc1ccnc(-c2csc(Nc3ncc(C(F)(F)F)cc3N(C)C(C)=O)n2)c1` [Example 96, N-(2-(4-(4-methoxypyridin-2-yl)thiazol-2-ylamino)-5-(trifluoromethyl)pyridin-3-yl)-N-methylacetamide] it was 6.30 to 6.70; in that of `Cc1cc(C(F)(F)F)cnc1Nc1nc(-c2cc3c(cn2)N(C)CC3)cs1` [Example 97, 4-(1-methyl-2,3-dihydro-1H-pyrrolo[2,3-c]pyridin-5-yl)-N-(3-methyl-5-(trifluoromethyl)pyridin-2-yl)thiazol-2-amine], over 6.70; in that of `Cc1ccnc(Nc2nc(-c3cc(OC4CN(C)C4)ccn3)cs2)c1` [Example 98, 4-(4-(1-methylazetidin-3-yloxy)pyridin-2-yl)-N-(4-methylpyridin-2-yl)thiazol-2-amine], over 6.70.
As for `Cc1ccnc(-c2csc(Nc3ncccc3-c3ccccc3)n2)c1` [Example 99, 4-(4-methylpyridin-2-yl)-N-(3-phenylpyridin-2-yl)thiazol-2-amine], the pIC50 was 5.30 to 6.30.
Turning to `Cc1cccnc1-c1csc(Nc2cc(-c3ccccc3)ccn2)n1` [Example 100, 4-(3-methylpyridin-2-yl)-N-(4-phenylpyridin-2-yl)thiazol-2-amine], the pIC50 was over 6.70.
Take `Cc1ccnc(Nc2nc(-c3cc(-c4ccccc4)ccn3)cs2)c1` [Example 101, N-(4-methylpyridin-2-yl)-4-(4-phenylpyridin-2-yl)thiazol-2-amine]: the pIC50 is over 6.70.
For `Cc1ccnc(Nc2nc(-c3cc(OC4COC4)ccn3)cs2)c1` [Example 102, N-(4-methylpyridin-2-yl)-4-(4-(oxetan-3-yloxy)pyridin-2-yl)thiazol-2-amine], the pIC50 is over 6.70.
Consider `Cc1ccnc(Nc2nc(-c3ncccc3-c3ccccc3)cs2)c1` [Example 103, N-(4-methylpyridin-2-yl)-4-(3-phenylpyridin-2-yl)thiazol-2-amine], for which the pIC50 was over 6.70.
In the case of `FC(F)(F)c1ccnc(Nc2nc(-c3ccc(OC4CCOCC4)cn3)cs2)c1` [Example 104, 4-(5-(tetrahydro-2H-pyran-4-yloxy)pyridin-2-yl)-N-(4-(trifluoromethyl)pyridin-2-yl)thiazol-2-amine] it was over 6.70.
In the case of `Cc1sc(Nc2cc(C(=O)NCC(F)(F)F)ccn2)nc1-c1ccc(OC2CCOCC2)cn1` [Example 106, 2-(5-methyl-4-(5-(tetrahydro-2H-pyran-4-yloxy)pyridin-2-yl)thiazol-2-ylamino)-N-(2,2,2-trifluoroethyl) isonicotinamide] it was 6.30 to 6.70; in that of `Cc1ccnc(Nc2nc(-c3ncccn3)cs2)c1` [Example 107, N-(4-methylpyridin-2-yl)-4-(pyrimidin-2-yl)thiazol-2-amine], 5.30 to 6.30; in that of `CC(=O)N(C)c1cc(C(F)(F)F)cnc1Nc1nc(-c2cc3n(n2)CCC3)cs1` [Example 108, N-(2-(4-(5,6-dihydro-4H-pyrrolo[1,2-b]pyrazol-2-yl)thiazol-2-ylamino)-5-(trifluoromethyl)pyridin-3-yl)-N-methylacetamide], over 6.70.
For `Fc1ccc(-c2csc(Nc3cc(C(F)(F)F)c(Br)cn3)n2)nc1` [Example 109, N-(5-bromo-4-(trifluoromethyl)pyridin-2-yl)-4-(5-fluoropyridin-2-yl)thiazol-2-amine], the pIC50 is 6.30 to 6.70.
For the compound `Cc1ccnc(Nc2nc(-c3ncccc3C)c(-c3ccccc3)s2)c1` [Example 110, 4-(3-methylpyridin-2-yl)-N-(4-methylpyridin-2-yl)-5-phenylthiazol-2-amine], the pIC50 was 5.30 to 6.30.
On to `Cc1cccnc1Nc1cnc(-c2ccc(OC3CCOCC3)cn2)s1` [Example 111, N-(3-methylpyridin-2-yl)-2-(5-(tetrahydro-2H-pyran-4-yloxy)pyridin-2-yl)thiazol-5-amine], for which the pIC50 is over 6.70.
As for `c1ccc(-c2ccnc(Nc3cnc(-c4ccccn4)s3)c2)cc1` [Example 112, N-(4-phenylpyridin-2-yl)-2-(pyridin-2-yl)thiazol-5-amine], the pIC50 was 6.30 to 6.70.

The values are drawn from patent US20240025891A1 (Celgene Corporation, priority 2020, published 2024).
